Measured values: patent US20160176867A1, “MODIFIED BET-PROTEIN-INHIBITING DIHYDROQUINOXALINONES AND DIHYDROPYRIDOPYRAZINONES” (BAYER PHARMA AKTIENGESELLSCHAFT, priority 2013, published 2016)

Legend:
[1] = molecular target: T1, BRD4 bromo domain 2 [BRD4(2)] (Homo sapiens, UniProt O60885); experiment: BRD4/acetylated peptide H4 binding assay (TR-FRET), BRD4 bromo domain 2; conditions: inhibition of BRD4(2)/Ac-H4 peptide interaction
T1 construct: N-terminally His6-tagged BRD4(2) (amino acids 357-445); made in house; host or cells: E. coli
Text: (§1) Protein-Protein Interaction Assay: BRD4/Acetylated Peptide H4 Binding Assay
To assess the BRD4(2) binding strength of the substances described in this application, the ability thereof to inhibit the interaction between BRD4(2) and acetylated histone H4 in a dose-dependent manner was quantified.
(§2) For this purpose, a time-resolved fluorescence resonance energy transfer (TR-FRET) assay was used, which measures the binding between N-terminally His6-tagged BRD4(2) (amino acids 357-445) and a synthetic acetylated histone H4 (Ac-H4) peptide with sequence SGRGK(Ac)GGK(Ac)GLGK(Ac)GGAK(Ac)RHRKVLRDNGSGSK-biotin. The recombinant BRD4(2) protein produced in-house according to Filippakopoulos et al., Nature, 2010, 468:1119-1123 and Cell, 2012, 149:214-231, was expressed in E. coli and purified by means of (Ni-NTA) affinity and (Sephadex G-75) size exclusion chromatography. The Ac-H4 peptide can be purchased, for example, from Biosyntan (Berlin, Germany).
(§3) In the assay, typically 11 different concentrations of each substance (0.1 nM, 0.33 nM, 1.1 nM, 3.8 nM, 13 nM, 44 nM, 0.15 μM, 0.51 μM, 1.7 μM, 5.9 μM and 20 μM) were analysed as duplicates on the same microtitre plate. For this purpose, 100-fold concentrated solutions in DMSO were prepared by serial dilutions (1:3.4) of a 2 mM stock solution into a clear, 384-well microtitre plate (Greiner Bio-One, Frickenhausen, Germany). From this, 50 nl were transferred into a black test plate (Greiner Bio-One, Frickenhausen, Germany). The test was started by the addition of 2 μl of a 2.5-fold concentrated BRD4(2) solution (final concentration typically 100 nM in the 5 μl of reaction volume) in aqueous assay buffer [50 mM HEPES pH 7.5, 50 mM sodium chloride (NaCl); 50 mM potassium fluoride (KF); 0.25 mM CHAPS and 0.05% serum albumin (BSA)] to the substances in the test plate. This was followed by a 10-minute incubation step at 22° C. for the pre-equilibration of putative complexes between BRD4(2) and the substances. Subsequently, 3 μl of a 1.67-fold concentrated solution (in assay buffer) consisting of Ac-H4 peptide (83.5 nM) and TR-FRET detection reagents [83.5 nM anti-6His-XL665 (Cisbio Bioassays, Codolet, France) and 12.52 nM streptavidin-Eu), (Perkin Elmer, #W1024)] in assay buffer were added.
(§4) The mixture was then incubated in the dark at 22° C. for one hour and then at 4° C. for at least 3 hours and for no longer than overnight. The formation of BRD4(2)/Ac-H4 complexes was determined by the measurement of the resonance energy transfer from the streptavidin-Eu chelate to the anti-6His-XL665 antibody present in the reaction. For this purpose, the fluorescence emission was measured at 620 nm and 665 nm after excitation at 330-350 nm in a TR-FRET measuring instrument, for example a Rubystar or Pherastar (both from BMG Lab Technologies, Offenburg, Germany) or a Viewlux (Perkin-Elmer). The ratio of the emissions at 665 nm and at 622 nm was taken as an indicator of the amount of BRD4(2)/Ac-H4 complexes formed.
(§5) The data (ratios) obtained were normalized, with 0% inhibition corresponding to the mean from the measurements for a set of controls (typically 32 data points) in which all the reagents were present. In these, in place of test substances, 50 nl of DMSO (100%) were used. Inhibition of 100% corresponded to the mean from the measurements for a set of controls (typically 32 data points) in which all the reagents except BRD4(2) were present. The IC50 was determined by regression analysis based on a 4-parameter equation (minimum, maximum, IC50, Hill; Y=max+(min−max)/(1+(X/IC50)Hill)).

[2] = molecular target: T2, BRD4 bromo domain 1 [BRD4(1)] (Homo sapiens, UniProt O60885); experiment: BRD4/acetylated peptide H4 binding assay (TR-FRET), BRD4 bromo domain 1; conditions: inhibition of BRD4(1)/Ac-H4 peptide interaction
T2 construct: N-terminally His6-tagged BRD4(1) (amino acids 67-152); made in house; host or cells: E. coli
Text: as §1
To assess the BRD4(1) binding strength of the substances described in this application, the ability thereof to inhibit the interaction between BRD4(1) and acetylated histone H4 in a dose-dependent manner was quantified.
as §2, with “BRD4(1)” for “BRD4(2)”, “67-152)” for “357-445)”, “GRGK(Ac)GGK(Ac)GLGK(Ac)GGAK(Ac)RHGSGSK-biotin.” for “SGRGK(Ac)GGK(Ac)GLGK(Ac)GGAK(Ac)RHRKVLRDNGSGSK-biotin.”
as §3, with “concentrated BRD4(1)” for “concentrated BRD4(2)”, “typically 10” for “typically 100”, “chloride (NaCl),” for “chloride (NaCl); 50 mM potassium fluoride (KF);”, “between BRD4(1)” for “between BRD4(2)”, “substances.” for “substances. Subsequently, 3 μl of a 1.67-fold concentrated solution (in assay buffer) consisting of Ac-H4 peptide (83.5 nM) and TR-FRET detection reagents [83.5 nM anti-6His-XL665 (Cisbio Bioassays, Codolet, France) and 12.52 nM streptavidin-Eu), (Perkin Elmer, #W1024)] in assay buffer were added.”
as §4, with “BRD4(1)/Ac-H4” for “BRD4(2)/Ac-H4”, “cryptate” for “chelate”
as §5, with “BRD4(1)” for “BRD4(2)”

SMILES	IC50 [1] [nM]	IC50 [2] [nM]
COCCN1c2nc(Nc3cccc(S(=O)(=O)N4CCOCC4)c3)ccc2N(C)C(=O)[C@@H]1C (stereo in doubt) [Example 112, (3S)-4-(2-methoxyethyl)-1,3-dimethyl-6-{[3-(morpholin-4-ylsulphonyl)phenyl]amino}-3,4-dihydropyrido[2,3-b]pyrazin-2(1H)-one]	57	5300
C[C@H]1C(=O)N(C)c2ccc(Nc3cccc(C(=O)NC4CCN(C)CC4)c3)nc2N1c1ccc(F)cc1 (stereo in doubt) [Example 116, 3-{[(3S)-4-(4-fluorophenyl)-1,3-dimethyl-2-oxo-1,2,3,4-tetrahydropyrido[2,3-b]pyrazin-6-yl]amino}-N-(1-methylpiperidin-4-yl)benzamide]	> 40000	6750
COCCN1c2nc(Nc3cccc(C(=O)N4CCN(C)CC4)c3)ccc2N(C)C(=O)[C@@H]1C (stereo in doubt) [Example 118, (3S)-4-(2-methoxyethyl)-1,3-dimethyl-6-({3-[(4-methylpiperazin-1-yl)carbonyl]phenyl}amino)-3,4-dihydropyrido[2,3-b]pyrazin-2(1H)-one]	> 40000	18200
COCCN1c2nc(Nc3cccc(C(=O)NC4CCN(C)CC4)c3)ccc2N(C)C(=O)[C@H]1C (stereo in doubt) [Example 119, 3-{[(3R)-4-(2-methoxyethyl)-1,3-dimethyl-2-oxo-1,2,3,4-tetrahydropyrido[2,3-b]pyrazin-6-yl]amino}-N-(1-methylpiperidin-4-yl)benzamide]	428	742
COCCN1c2nc(Nc3cccc(C(=O)NC4CCN(C)CC4)c3)ccc2N(C)C(=O)[C@@H]1C (stereo in doubt) [Example 120, 3-{[(3S)-4-(2-methoxyethyl)-1,3-dimethyl-2-oxo-1,2,3,4-tetrahydropyrido[2,3-b]pyrazin-6-yl]amino}-N-(1-methylpiperidin-4-yl)benzamide]	4460	6870

Now those with a lower IC50 [2], led by results:

IC50 [1] [nM]	IC50 [2] [nM]	SMILES
216	531	COCCN1c2nc(Nc3cccc(C(=O)NC4CCN(C)CC4)c3)ccc2N(C)C(=O)C1C (racemic) [Example 98, 3-{[4-(2-methoxyethyl)-1,3-dimethyl-2-oxo-1,2,3,4-tetrahydropyrido[2,3-b]pyrazin-6-yl]amino}-N-(1-methylpiperidin-4-yl)benzamide]
706	379	C[C@@H]1C(=O)N(C)c2ccc(Nc3cccc(C(=O)NC4CCN(C)CC4)c3)nc2N1c1ccc(F)cc1 (stereo in doubt) [Example 115, 3-{[(3R)-4-(4-fluorophenyl)-1,3-dimethyl-2-oxo-1,2,3,4-tetrahydropyrido[2,3-b]pyrazin-6-yl]amino}-N-(1-methylpiperidin-4-yl)benzamide]
434	489	COCCN1c2nc(Nc3cccc(C(=O)N4CCN(C)CC4)c3)ccc2N(C)C(=O)[C@H]1C (stereo in doubt) [Example 117, (3R)-4-(2-methoxyethyl)-1,3-dimethyl-6-({3-[(4-methylpiperazin-1-yl)carbonyl]phenyl}amino)-3,4-dihydropyrido[2,3-b]pyrazin-2(1H)-one]
	149	COc1ccc(C(=O)N[C@H]2CC[C@H](N3CCN(CC4CC4)CC3)CC2)cc1Nc1ccc2c(n1)N(C1CCOCC1)[C@H](C)C(=O)N2C [Example 18, N-{trans-4-[4-(Cyclopropylmethyl)piperazin-1-yl]cyclohexyl}-3-{[(3R)-1,3-dimethyl-2-oxo-4-(tetrahydro-2H-pyran-4-yl)-1,2,3,4-tetrahydropyrido[2,3-b]pyrazin-6-yl]amino}-4-methoxybenzamide]
	40	C[C@@H]1C(=O)N(C)c2ccc(Nc3cccc(S(=O)(=O)N4CC(F)(F)C4)c3)nc2N1C1CCOCC1 [Example 31, (3R)-6-({3-[(3,3-Difluoroazetidin-1-yl)sulphonyl]phenyl}amino)-1,3-dimethyl-4-(tetrahydro-2H-pyran-4-yl)-3,4-dihydropyrido[2,3-b]pyrazin-2(1H)-one]
	36	CC(C)NS(=O)(=O)c1cccc(Nc2ccc3c(n2)N(C2CCOCC2)[C@H](C)C(=O)N3C)c1 [Example 42, 3-{[(3R)-1,3-dimethyl-2-oxo-4-(tetrahydro-2H-pyran-4-yl)-1,2,3,4-tetrahydropyrido[2,3-b]pyrazin-6-yl]amino}-N-isopropylbenzene-sulphonamide]
	351	COc1ccc(C(=O)N[C@H]2CC[C@H](N3CCN(CC4CC4)CC3)CC2)cc1Nc1ccc2c(n1)N(C1CCOCC1)[C@H](C)C(=O)N2C [Example 87, N-{trans-4-[4-(cyclo-propylmethyl)piperazin-1-yl]cyclohexyl}-3-{[(3R)-1,3-dimethyl-2-oxo-4-(tetrahydro-2H-pyran-4-yl)-1,2,3,4-tetrahydropyrido[2,3-b]pyrazin-6-yl]amino}-4-methoxybenzamide]
